Results: patent US20100311714A1, “1H-IMIDAZO[4,5-c]QUINOLINONE COMPOUNDS” (priority 2009, published 2010)
Where two headings read alike, the source gives them in different places.

Experiments:
[1] = test system: PKB Ser473 phosphorylation in Rat1-myr-HA-p110 beta cells; assay: Reverse protein array, PKB Ser473 phosphorylation in Rat1-myr-HA-p110 beta cells; format: cell-based; conditions: Rattus norvegicus, 0.5 h, 30 minutes compound incubation, read-out: p-PKB/IC50_beta
Procedure: (§1) No. 15140-114) and 10 μg/ml Puromycine (Sigma, cat. No. P9620).
(§2) The Rat1-myr-HA-p110 alpha, beta and delta cells were trypsinized and counted with a CASY TT cell counter (Schärfe System GmbH, Reutlingen Germany). The cells were diluted in fresh DMEM complete medium and 3×10^4 cells/150 μl/well seeded in 96-well TPP-tissue culture plates (TPP, cat. No. 92096). The plates were incubated at 37° C. and 5% CO2 under humidified condition for at least 20 h. Compound of formula I working solutions were prepared freshly as serial 8 step dilutions (vol/vol) in DMSO on the day of the experiment. The working solutions were further diluted 1/500 in cell culture medium to get final compound concentrations of 10, 3.333, 1.111, 0.370, 0.123, 0.041, 0.014, 0.005 μM. The final DMSO concentration was kept constant at 0.2%. cell culture medium containing 0.2% DMSO was used as vehicle treatment control. Post incubation, the cells were treated with the serial compound dilution. 50 μl of the compound medium mixture was added to the wells containing cells and 150 μl DMEM medium and incubated for 30 minutes (37° C., 5% CO2). After 30 minutes of incubation, the medium mixture was quickly removed by aspiration. For cell lysis, a mixture of 10% CLB1 CeLyA lysis buffer (Zeptosens, cat. No. 9000), 90% CSBL1 CeLyA spotting buffer (Zeptosens, cat. No. 9020) was freshly prepared and supplemented with 1% Octyl β-D-glucopyranoside (SIGMA, cat. No. 08001-5G) and 1 mM Na-Orthovanadate (Sigma, cat No. S-6508). 50 μl of the described lysis buffer mix was added to each well, followed by 10 minutes of incubation on ice. After an additional freeze-thaw cycle, another 50 μl of the lysis buffer mix without Octyl β-D-glucopyranoside was added to the wells, and 90 μl of the cell lysate was transferred to a 96-well V-bottom plate (Fisher Scientific, cat. No. 6067Y), followed by a centrifugation step (5 min, 1500 rpm at 19° C. in an Eppendorf 5810R centrifuge) to remove the unlysed cell debris.
(§3) The samples were spotted onto ZeptoMARK® PWG protein microarray chips (Zeptosens, Witterswil, Switzerland) with the piezoelectric microdispense-based, non-contact Nano-Plotter 2.1 (GeSiM, Grosserkmannsdorf, Germany). Each sample was spotted at 4 different sample concentrations (d1=100%, d2=75%, d3=50%, d4=25%) by diluting the cell lysate with the corresponding volume of lysis buffer mix. After spotting the ZeptoMARK® protein microarrays, the chips are incubated for 1 hour at 37° C. To receive a uniform blocking result, the CeLyA blocking buffer BB1 (Zeptosens, cat. No. 9040) is administered via an ultrasonic nebulizer. After 20 minutes of blocking the chips are extensively rinsed with deionized water (Milli-Q quality, 18MΩ×cm) and dried in a nitrogen air flow.
(§4) After the sample spotting and blocking procedure, the ZeptoMARK® chips were transferred to the ZeptoCARRIER (Zeptosens, cat. No. 1100), whose six flow cells individually address the six arrays on a chip, and washed twice with 200 μl CAB1 CeLyA assay buffer (Zeptosens, cat. No. 9032). The assay buffer was then aspirated and each compartment incubated with 100 μl of the primary target antibody (pAkt Ser473; CST#9271) at RT over night. Post incubation, the primary antibody was removed, the arrays washed twice with CAB1 buffer and further incubated with 100 μl of Alexa fluor 647-labeled anti rabbit IgG Fab fragments (Invitrogen; #Z25305) for one hour at RT in the dark. After incubation, the arrays were washed twice with 200 μl CAB1 buffer. The fluorescence of the target-bound Fab fragments is read out on the ZeptoReader (Zeptosens, Witterswil, Switzerland) using a laser (excitation wavelength 635 nm) and a CCD camera. The fluorescence signal was assessed with exposure times of 1, 3, 5 and 10 seconds, depending on the intensity of the signal. The resulting four images taken per array are stored as 16-bit TIF files. […]

[2] = Parallel Artificial Membrane Permeability Assay (PAMPA) at pH 6.8; format: physicochemical
Description: (§5) The physicochemical properties of relevance for the absorption of the compound, such as the solubility and the membrane permeability, especially at a pH close to neutral pH can be measured using the procedure as described by L. ZHOU et al. in JOURNAL OF PHARMACEUTICAL SCIENCES, VOL. 96, NO. 11, p. 3052-3071 (2007) for the solubility at pH 6.8 and the procedure as described by F. Wohnsland and B. Faller in Journal of Medicinal Chemistry Vol 44, p. 923-930 (2001) for the Parallel Artificial Membrane Permeability Assay (PAMPA) at pH 6.8.
The following permeability log Pe was measured for compound of formula (I) as exemplified below: […]

[3] = test system: PKB Ser473 phosphorylation in Rat1-myr-HA-p110 delta cells; assay: Reverse protein array, PKB Ser473 phosphorylation in Rat1-myr-HA-p110 delta cells; format: cell-based; conditions: Rattus norvegicus, 0.5 h, 30 minutes compound incubation, read-out: p-PKB/IC50_delta
Procedure: as §1, §2, §3, §4

[4] = test system: S6 Ribosomal Protein phosphorylation Ser235/236 in TSC1 null mouse embryo fibroblast (MEF) cells; assay: Reverse protein array, S6 Ribosomal Protein phosphorylation in TSC1 null MEF cells; format: cell-based; conditions: 1 h, TSC1-/- MEFs, 60 minutes
Procedure: TSC1−/− MEFs cells (provided by D. Kwiatkowski), were cultivated in Dulbecco's modified Eagle's medium (DMEM high Glucose, GIBCO, cat. No. 41956-039) supplemented with 10% heat inactivated fetal bovine calf serum (Amimed, cat. No. 2-01F16-I), 1% L-Glutamine (Invitrogen, cat. No. 25030-02), 1% penicillin-streptomycin (GIBCO, cat. No. 15140-114) at 37° C. in a 5% CO2 and 95% relative humidity atmosphere incubator.
The TSC1−/− cells were trypsinized and counted with a CASY TT cell counter (Schärfe System GmbH, Reutlingen Germany). The cells were diluted in fresh DMEM complete medium and 0.75×10^4 cells/150 μl/well seeded in 96-well TPP-tissue culture plates (TPP, cat. No. 92096). The plates were incubated at 37° C. and 5% CO2 under humidified condition for at least 20 h. Working solutions were prepared freshly as serial 8 step dilutions (vol/vol) in DMSO on the day of the experiment. The working solutions were further diluted 1/5000 in cell culture medium to get final compound concentrations of […]. The final DMSO concentration was kept constant at 0.02%. cell culture medium containing 0.02% DMSO was used as vehicle treatment control. Post incubation, the cells were treated with the serial compound dilution. 50 μl of the compound medium mixture was added to the wells containing cells and 150 μl DMEM medium and incubated for 60 minutes (37° C., 5% CO2). After 60 minutes of incubation, the medium mixture was quickly removed by aspiration. For cell lysis, a mixture of 10% CLB1 CeLyA lysis buffer (Zeptosens, cat. No. 9000), 90% CSBL1 CeLyA spotting buffer (Zeptosens, cat. No. 9020) was freshly prepared and supplemented with 1% Octyl β-D-glucopyranoside (SIGMA, cat. No. 08001-5G) and 1 mM Na-Orthovanadate (Sigma, cat No. S-6508). 50 μl of the described lysis buffer mix was added to each well, followed by 10 minutes of incubation on ice. After an additional freeze-thaw cycle, another 50 μl of the lysis buffer mix without Octyl β-D-glucopyranoside was added to the wells, and 90 μl of the cell lysate was transferred to a 96-well V-bottom plate (Fisher Scientific, cat. No. 6067Y), followed by a centrifugation step (5 min, 1500 rpm at 19° C. in an Eppendorf 5810R centrifuge) to remove the unlysed cell debris.
The spotting of the chips follows the previous described method.
The signal detection and the data analysis follows the previous described method using the pS6 ribosomal protein Ser235/236 (CST, cat. No. #2211) as a primary antibody.

[5] = test system: PKB Ser473 phosphorylation in Rat1-myr-HA-p110 alpha cells; assay: Reverse protein array, PKB Ser473 phosphorylation in Rat1-myr-HA-p110 alpha cells; format: cell-based; conditions: Rattus norvegicus, 0.5 h, 30 minutes compound incubation, read-out: p-PKB/IC50_alpha
Procedure: as §1, §2, §3, §4

[6] = High-throughput equilibrium solubility at pH 6.8; format: physicochemical; conditions: pH 6.8, aqueous buffer, thermodynamic from solid; read-out: HT-Eq Sol/pH 6.8
Description: as §5

Row | IC50 [1] [nM] | HT-perm/logPe pH6.8 [2] | IC50 [3] [nM] | IC50 [5] [nM] | HT-Perm logPe pH6.8 [2] | solubility thermodynamic [6] [µg/mL] | Structure (SMILES) | IC50 ([4]; read-out: p-S6) [nM] | IC50 ([4]; read-out: p-S6 IC50) [nM]
1 | 34.6 | −4.3 | 113 | 7.36 | – | – | CCOc1ccc(-c2ccc3ncc4c(c3c2)n(-c2ccc(OC)nc2OC)c(=O)n4C)cn1 [Example 8.2, 1-(2,6-Dimethoxy-pyridin-3-yl)-8-(6-ethoxy-pyridin-3-yl)-3-methyl-1,3-dihydro-imidazo[4,5-c]quinolin-2-one] | 7.69 | –
2 | 273 | – | 1060 | 64.1 | −5.3 | – | Cc1ncccc1-n1c(=O)n(C)c2cnc3ccc(-c4ccc5nccn5c4)cc3c21 [Example 2.23, 8-Imidazo[1,2-a]pyridin-6-yl-3-methyl-1-(2-methyl-pyridin-3-yl)-1,3-dihydro-imidazo[4,5-c]quinolin-2-one] | – | 37
3 | 39.7 | – | 83.2 | 24.3 | – | – | CCNc1cc(-c2ccc3ncc4c(c3c2)n(-c2ccc(N3CC[C@H](O)C3)nc2C)c(=O)n4C)cnc1CO [Example 32.6, 8-(5-Ethylamino-6-hydroxymethyl-pyridin-3-yl)-1-[6-((S)-3-hydroxy-pyrrolidin-1-yl)-2-methyl-pyridin-3-yl]-3-methyl-1,3-dihydro-imidazo[4,5-c]quinolin-2-one] | – | 8.6
4 | 132 | – | 26.4 | 5.3 | −4.1 | – | COc1ncc(-c2ccc3ncc4c(c3c2)n(-c2ccc(C(C)(C)O)nc2C)c(=O)n4C)c(OC)n1 [Example 31.3, 8-(2,4-Dimethoxy-pyrimidin-5-yl)-1-[6-(1-hydroxy-1-methyl-ethyl)-2-methyl-pyridin-3-yl]-3-methyl-1,3-dihydro-imidazo[4,5-c]quinolin-2-one] | – | 1
5 | < 4.57 | −3.8 | 19.5 | 4.57 | – | – | CNc1ccc(-c2ccc3ncc4c(c3c2)n(-c2ccc(OC)nc2OC)c(=O)n4C)cn1 [Example 8.3, 1-(2,6-Dimethoxy-pyridin-3-yl)-3-methyl-8-(6-methylamino-pyridin-3-yl)-1,3-dihydro-imidazo[4,5-c]quinolin-2-one] | 1.05 | –
6 | – | – | – | 398 | – | > 469 | Cc1cccnc1-n1c(=O)n(C)c2cnc3ccc(-c4ccc(OCCCN(C)C)nc4)cc3c21 [Example 3.7, 8-[6-(3-Dimethylamino-propoxy)-pyridin-3-yl]-3-methyl-1-(3-methyl-pyridin-2-yl)-1,3-dihydro-imidazo[4,5-c]quinolin-2-one] | – | –
7 | 11.7 | −3.8 | 92.1 | 5.01 | – | – | CCOc1ccc(-c2ccc3ncc4c(c3c2)n(-c2ccc(OC)nc2C)c(=O)n4C)cn1 [Example 11.1, 8-(6-Ethoxy-pyridin-3-yl)-1-(6-methoxy-2-methyl-pyridin-3-yl)-3-methyl-1,3-dihydro-imidazo[4,5-c]quinolin-2-one] | 10.6 | –
8 | 94.6 | – | 206 | 46.8 | – | – | CNc1ncc(-c2ccc3ncc4c(c3c2)n(-c2cncc(C)c2)c(=O)n4C)cn1 [Example 17.2, 3-Methyl-8-(2-methylamino-pyrimidin-5-yl)-1-(5-methyl-pyridin-3-yl)-1,3-dihydro-imidazo[4,5-c]quinolin-2-one] | – | 10
9 | 31 | – | 84.2 | 30.3 | – | – | Cc1nc(N2CC[C@@H](O)C2)ccc1-n1c(=O)n(C)c2cnc3ccc(-c4cncc(C(C)(C)C#N)c4)cc3c21 [Example 34.5, 2-(5-{1-[6-((R)-3-Hydroxy-pyrrolidin-1-yl)-2-methyl-pyridin-3-yl]-3-methyl-2-oxo-2,3-dihydro-1H-imidazo[4,5-c]quinolin-8-yl}-pyridin-3-yl)-2-methyl-propionitrile] | – | 2
10 | 115 | – | 143 | 72.6 | −3.8 | – | COCCOc1cncc(-c2ccc3ncc4c(c3c2)n(-c2ccc(OC)nc2OC)c(=O)n4C)c1 [Example 8.8, 1-(2,6-Dimethoxy-pyridin-3-yl)-8-[5-(2-methoxy-ethoxy)-pyridin-3-yl]-3-methyl-1,3-dihydro-imidazo[4,5-c]quinolin-2-one] | – | 7
